In patent US10660877B2 (BRISTOL-MYERS SQUIBB COMPANY, priority 2016, dated 2020):
pIC50: −log10 of the molar value. Read-outs that look alike come from different tables or passages of the source.

Experiments:
[1] = molecular target: human TLR7 (Homo sapiens (Human), UniProt Q9NYK1); experiment: TLR7 inhibition reporter assay (HEK-Blue cells, SEAP reporter, gardiquimod stimulation); type: cell-based
[2] = molecular target: human TLR8 (Homo sapiens (Human), UniProt Q9NR97); experiment: TLR8 inhibition reporter assay (HEK-Blue cells, SEAP reporter, R848 stimulation);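 further: compounds tested from 0.05 nM to 50 µM, 22 h at 37 °C, SEAP measured with HEK-Blue Detection, inhibition relative to agonist plus DMSO versus a known inhibitor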
[3] = molecular target: human TLR9 (Homo sapiens (Human), UniProt Q9NR96); experiment: TLR9 inhibition reporter assay (HEK-Blue cells, SEAP reporter, ODN2006 stimulation);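 further: compounds tested over 0.05 nM to 50 µM, 22 h incubation, inhibition taken as SEAP signal drop from agonist plus DMSO wells toward a known inhibitor control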
[4] = HEK-Blue cells overexpressing human TLR7, gardiquimod 7.5 μM
[5] = read-out: TLR8 IC50, HEK-Blue cells overexpressing human TLR8, R848 15.9 μM
[6] = read-out: TLR9 IC50, HEK-Blue cells overexpressing human TLR9, ODN2006 5 nM
[7] = HEK-Blue cells, gardiquimod 7.5 μM
[8] = read-out: TLR8 IC50, HEK-Blue cells, R848 15.9 μM
[9] = read-out: TLR9 IC50, HEK-Blue cells, ODN2006 5 nM

human TLR7, sequence (Q9NYK1 27-1049): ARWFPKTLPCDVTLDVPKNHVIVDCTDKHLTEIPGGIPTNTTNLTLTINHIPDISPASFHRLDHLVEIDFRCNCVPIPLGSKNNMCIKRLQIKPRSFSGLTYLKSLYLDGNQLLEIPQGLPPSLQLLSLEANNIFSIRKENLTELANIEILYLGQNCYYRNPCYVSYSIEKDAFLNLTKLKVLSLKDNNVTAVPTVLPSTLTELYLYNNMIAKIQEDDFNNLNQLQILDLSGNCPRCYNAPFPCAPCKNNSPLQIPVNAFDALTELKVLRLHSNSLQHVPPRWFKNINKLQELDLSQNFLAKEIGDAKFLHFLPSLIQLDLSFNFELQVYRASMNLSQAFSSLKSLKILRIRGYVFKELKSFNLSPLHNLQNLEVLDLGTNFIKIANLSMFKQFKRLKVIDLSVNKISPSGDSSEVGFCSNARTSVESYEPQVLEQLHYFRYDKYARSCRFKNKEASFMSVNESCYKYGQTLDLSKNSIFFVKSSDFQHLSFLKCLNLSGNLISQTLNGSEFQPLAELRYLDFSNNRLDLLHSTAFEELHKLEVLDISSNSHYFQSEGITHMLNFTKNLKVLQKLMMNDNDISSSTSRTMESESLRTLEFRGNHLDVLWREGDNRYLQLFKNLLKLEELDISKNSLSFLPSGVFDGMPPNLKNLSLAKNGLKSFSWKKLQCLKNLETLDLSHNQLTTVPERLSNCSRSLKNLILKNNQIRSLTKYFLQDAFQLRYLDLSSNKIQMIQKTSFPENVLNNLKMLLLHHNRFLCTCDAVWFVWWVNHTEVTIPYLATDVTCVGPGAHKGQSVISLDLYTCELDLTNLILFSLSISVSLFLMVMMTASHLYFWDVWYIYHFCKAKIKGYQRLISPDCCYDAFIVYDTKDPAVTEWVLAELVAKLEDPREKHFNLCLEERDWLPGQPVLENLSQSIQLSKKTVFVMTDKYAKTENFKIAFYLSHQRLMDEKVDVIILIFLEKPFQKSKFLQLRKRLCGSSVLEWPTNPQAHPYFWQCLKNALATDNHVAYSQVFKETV
human TLR8, sequence (Q9NR97 27-1041): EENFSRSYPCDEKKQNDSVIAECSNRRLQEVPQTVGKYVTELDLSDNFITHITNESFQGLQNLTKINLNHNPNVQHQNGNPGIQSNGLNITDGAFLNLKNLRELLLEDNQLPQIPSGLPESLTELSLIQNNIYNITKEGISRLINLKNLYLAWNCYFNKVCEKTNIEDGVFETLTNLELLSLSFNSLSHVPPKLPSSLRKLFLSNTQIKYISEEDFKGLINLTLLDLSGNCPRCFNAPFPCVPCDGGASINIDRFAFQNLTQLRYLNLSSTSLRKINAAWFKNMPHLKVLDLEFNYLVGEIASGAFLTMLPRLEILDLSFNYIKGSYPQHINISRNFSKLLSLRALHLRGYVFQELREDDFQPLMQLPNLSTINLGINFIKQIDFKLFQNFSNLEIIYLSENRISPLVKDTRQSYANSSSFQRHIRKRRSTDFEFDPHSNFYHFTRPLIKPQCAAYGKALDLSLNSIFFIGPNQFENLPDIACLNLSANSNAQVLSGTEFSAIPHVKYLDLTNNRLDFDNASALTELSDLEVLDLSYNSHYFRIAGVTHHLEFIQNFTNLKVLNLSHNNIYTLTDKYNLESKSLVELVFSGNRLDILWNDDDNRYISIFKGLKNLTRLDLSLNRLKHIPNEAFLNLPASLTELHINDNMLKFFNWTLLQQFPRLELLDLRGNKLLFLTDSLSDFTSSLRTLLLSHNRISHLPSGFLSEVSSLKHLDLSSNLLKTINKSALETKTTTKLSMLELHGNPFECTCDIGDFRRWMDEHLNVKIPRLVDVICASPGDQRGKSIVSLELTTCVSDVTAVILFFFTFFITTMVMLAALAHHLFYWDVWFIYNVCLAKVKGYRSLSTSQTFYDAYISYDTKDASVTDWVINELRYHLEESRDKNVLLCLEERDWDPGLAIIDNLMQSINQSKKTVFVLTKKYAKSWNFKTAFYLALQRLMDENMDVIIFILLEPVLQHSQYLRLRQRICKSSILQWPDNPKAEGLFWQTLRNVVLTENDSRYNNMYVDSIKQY
human TLR9, sequence (Q9NR96 26-1032): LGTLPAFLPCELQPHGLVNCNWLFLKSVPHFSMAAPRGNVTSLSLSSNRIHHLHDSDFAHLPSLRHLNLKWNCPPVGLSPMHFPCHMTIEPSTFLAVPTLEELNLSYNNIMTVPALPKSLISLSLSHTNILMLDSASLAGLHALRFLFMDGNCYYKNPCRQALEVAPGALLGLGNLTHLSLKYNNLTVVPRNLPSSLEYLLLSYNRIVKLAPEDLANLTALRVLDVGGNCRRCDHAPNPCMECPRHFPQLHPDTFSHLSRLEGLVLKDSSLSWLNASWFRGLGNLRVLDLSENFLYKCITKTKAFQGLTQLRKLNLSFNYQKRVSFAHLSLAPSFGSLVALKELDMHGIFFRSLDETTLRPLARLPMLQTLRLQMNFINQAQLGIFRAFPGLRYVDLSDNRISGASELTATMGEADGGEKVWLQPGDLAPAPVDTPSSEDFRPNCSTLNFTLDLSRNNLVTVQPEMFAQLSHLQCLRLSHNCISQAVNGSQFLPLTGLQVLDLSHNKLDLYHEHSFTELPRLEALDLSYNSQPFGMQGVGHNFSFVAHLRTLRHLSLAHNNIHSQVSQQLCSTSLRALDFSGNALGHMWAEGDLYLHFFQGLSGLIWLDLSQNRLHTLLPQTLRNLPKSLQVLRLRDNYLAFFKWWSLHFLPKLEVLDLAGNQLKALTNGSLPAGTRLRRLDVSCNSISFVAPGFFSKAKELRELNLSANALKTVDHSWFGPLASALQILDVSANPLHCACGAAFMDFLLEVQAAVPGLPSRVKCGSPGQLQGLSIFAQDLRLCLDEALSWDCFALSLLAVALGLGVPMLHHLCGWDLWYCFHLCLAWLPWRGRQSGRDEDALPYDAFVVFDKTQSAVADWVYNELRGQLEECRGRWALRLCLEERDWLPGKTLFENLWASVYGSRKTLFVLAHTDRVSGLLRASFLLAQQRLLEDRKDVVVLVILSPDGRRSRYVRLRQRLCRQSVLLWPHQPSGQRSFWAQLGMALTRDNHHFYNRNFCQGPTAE

SMILES	pIC50 [1, 4]	pIC50 [2, 5]	pIC50 [3, 6]	pIC50 ([2]; TLR8 IC50, HEK-Blue cells overexpressing human TLR8, R848 15.9 μM)	pIC50 ([3]; TLR9 IC50, HEK-Blue cells overexpressing human TLR9, ODN2006 5 nM)	pIC50 [1, 7]	pIC50 [2, 8]	pIC50 [3, 9]
CCCN(CCO)CC(=O)N1CCC(c2ccc3[nH]c(-c4cc(C)nc(C)c4)c(C(C)C)c3c2)CC1 [Example 398, 1-(4-(2-(2,6-dimethylpyridin-4-yl)-3-isopropyl-1H-indol-5-yl)piperidin-1-yl)-2-((2-hydroxyethyl)(propyl)amino)ethan-1-one]	8.46	7.59	6.11					
Cc1cc(-c2[nH]c3ccc(C4CCN(C(=O)C5CC(=O)N(C)C5)CC4)cc3c2C(C)C)cc(C)n1 (single isomer, unassigned) [Example 101, 4-(4-(2-(2,6-dimethylpyridin-4-yl)-3-isopropyl-1H-indol-5-yl)piperidine-1-carbonyl)-1-methylpyrrolidin-2-one]	8.03			7.28	4.43			
Cc1cc(-c2[nH]c3ccc(C4CCN(CC5CCN(C(C)C)C5)CC4)cc3c2C(C)C)cc(C)n1 (stereo not drawn) [Example 465, 2-(2,6-dimethylpyridin-4-yl)-3-isopropyl-5-(1-((1-isopropylpyrrolidin-3-yl)methyl)piperidin-4-yl)-1H-indole]	8.15	8.33	6.83					
CCc1c(-c2ccnc(C#N)c2)[nH]c2ccc(C3CCNCC3)cc12 [Example 64, 4-(3-ethyl-5-(piperidin-4-yl)-1H-indol-2-yl)picolinonitrile]	7.02	7.21	6.05					
Cc1cc(-c2[nH]c3ccc(C4CCN(C(=O)c5c(C)n[nH]c5C)CC4)cc3c2C(C)C)cc(C)n1 [Example 121, (3,5-dimethyl-1H-pyrazol-4-yl)(4-(2-(2,6-dimethylpyridin-4-yl)-3-isopropyl-1H-indol-5-yl)piperidin-1-yl)methanone]	7.52	7.01	4.97					
Cc1cc(-c2[nH]c3ccc(C4CCN(C(=O)[C@H]5CC[C@H](N)CC5)CC4)cc3c2C(C)C)ccn1 [Example 764, ((1r,4r)-4-aminocyclohexyl) (4-(3-isopropyl-2-(2-methylpyridin-4-yl)-1H-indol-5-yl)piperidin-1-yl)methanone]	6.76	6.58	6.22					
Cc1cc(-c2[nH]c3ccc(C4CCN(C(=O)c5cn(C)nc5C)CC4)cc3c2C(C)C)cc(C)n1 [Example 141, (1,3-dimethyl-1H-pyrazol-4-yl)(4-(2-(2,6-dimethylpyridin-4-yl)-3-isopropyl-1H-indol-5-yl)piperidin-1-yl)methanone]	8.32	7.22	4.40					
Cc1cc(-c2[nH]c3ccc(C4CCN(Cc5ccnn5C)CC4)cc3c2C(C)C)cc(C)n1 [Example 461, 2-(2,6-dimethylpyridin-4-yl)-3-isopropyl-5-(1-((1-methyl-1H-pyrazol-5-yl)methyl)piperidin-4-yl)-1H-indole]	8.03	8.12	6.21					
Cc1cc(-c2[nH]c3ccc(C4CCN(C5CCOC(C)(C)C5)CC4)cc3c2C(C)C)cc(C)n1 (stereo not drawn) [Example 453, 2-(2,6-dimethylpyridin-4-yl)-5-(1-(2,2-dimethyltetrahydro-2H-pyran-4-yl)piperidin-4-yl)-3-isopropyl-1H-indole]	8.07	8.19	6.59					
CCc1c(-c2ccnc(OC)c2)[nH]c2ccc(C3CCN(C4CCN(C)CC4)CC3)cc12 [Example 790, 3-ethyl-2-(2-methoxypyridin-4-yl)-5-(1′-methyl-[1,4′-bipiperidin]-4-yl)-1H-indole]	5.77	5.85	5.75					
Cc1cc(-c2[nH]c3ccc(C4CCN(CC(=O)N(C)CCC5(O)CCCC5)CC4)cc3c2C(C)C)cc(C)n1 [Example 303, 2-(4-(2-(2,6-dimethylpyridin-4-yl)-3-isopropyl-1H-indol-5-yl)piperidin-1-yl)-N-(2-(1-hydroxycyclopentyl)ethyl)-N-methylacetamide]	8.11	7.45	6.40					
COC(=O)N1CCC(c2ccc3[nH]c(-c4ccnc(C)c4)c(C(C)C)c3c2)CC1 [Example 562, methyl 4-(3-isopropyl-2-(2-methylpyridin-4-yl)-1H-indol-5-yl) piperidine-1-carboxylate]	6.54	5.85	< 4.30					
Cc1cc(-c2[nH]c3ccc(C4CCN(C5CCN(C(C)C)CC5)CC4)cc3c2C(C)C)cc(C)n1 [Example 427, 2-(2,6-dimethylpyridin-4-yl)-3-isopropyl-5-(1′-isopropyl-[1,4′-bipiperidin]-4-yl)-1H-indole]	8.08	8.09	6.76					
CC(C)c1c(-c2ccnc(C(=O)Nc3nccs3)c2)[nH]c2ccc(C3CCNCC3)cc12 [Example 477, 4-(3-isopropyl-5-(piperidin-4-yl)-1H-indol-2-yl)-N-(thiazol-2-yl) picolinamide]	5.51	5.96	5.66					
Cc1cc(-c2[nH]c3ccc(C4CCN(S(=O)(=O)C(C)C)CC4)cc3c2C(C)C)ccn1 [Example 544, 3-isopropyl-5-(1-(isopropylsulfonyl)piperidin-4-yl)-2-(2-methylpyridin-4-yl)-1H-indole]	6.92	6.61	4.92					
Cc1cc(-c2[nH]c3ccc(C4CCN(C(=O)CS(C)(=O)=O)CC4)cc3c2C(C)C)ccn1 [Example 608, 1-(4-(3-isopropyl-2-(2-methylpyridin-4-yl)-1H-indol-5-yl)piperidin-1-yl)-2-(methylsulfonyl)ethan-1-one]	7.29	6.73	5.73					
Cc1cc(-c2[nH]c3ccc(C4CCN(C(=O)CNCC(C)C)CC4)cc3c2C(C)C)cc(C)n1 [Example 338, 1-(4-(2-(2,6-dimethylpyridin-4-yl)-3-isopropyl-1H-indol-5-yl)piperidin-1-yl)-2-(isobutylamino)ethan-1-one]	8.24	7.63	6.26					
Cc1cc(-c2[nH]c3ccc(C4CCN(C(=O)C5(N)CC5)CC4)cc3c2C(C)C)cc(C)n1 [Example 195, (1-aminocyclopropyl)(4-(2-(2,6-dimethylpyridin-4-yl)-3-isopropyl-1H-indol-5-yl)piperidin-1-yl)methanone]	8.22	7.27	5.28					
Cc1cc(-c2[nH]c3ccc(C4CCN(CC5CCN(C(C)C)CC5)CC4)cc3c2C(C)C)ccn1 [Example 742, 3-isopropyl-5-(1-((1-isopropylpiperidin-4-yl)methyl)piperidin-4-yl)-2-(2-methylpyridin-4-yl)-1H-indole]	8.04	8.26	7.00					
CCc1c(-c2ccnc(C)c2)[nH]c2ccc(C3CCN(C(=O)c4ccnc(F)c4)CC3)cc12 [Example 592, (4-(3-ethyl-2-(2-methylpyridin-4-yl)-1H-indol-5-yl)piperidin-1-yl)(2-fluoropyridin-4-yl)methanone]	6.56	6.63	4.77					
CCc1c(-c2ccnc(C)c2)[nH]c2ccc(C3CCN(CC4CCN(C(C)C)CC4)CC3)cc12 [Example 675, 3-ethyl-5-(1-((1-isopropylpiperidin-4-yl)methyl)piperidin-4-yl)-2-(2-methylpyridin-4-yl)-1H-indole]	7.35	7.92	7.38					
Cc1cc(-c2[nH]c3ccc(C4CCN(C(=O)[C@@H]5CC(F)(F)CN5)CC4)cc3c2C(C)C)cc(C)n1 [Example 189, (S)-(4,4-difluoropyrrolidin-2-yl)(4-(2-(2,6-dimethylpyridin-4-yl)-3-isopropyl-1H-indol-5-yl)piperidin-1-yl) methanone]	8.15	7.13	4.82					
Cc1cc(-c2[nH]c3ccc(C4CCN(C(=O)CN5CCCC(O)C5)CC4)cc3c2C(C)C)cc(C)n1 (stereo not drawn) [Example 383, 1-(4-(2-(2,6-dimethylpyridin-4-yl)-3-isopropyl-1H-indol-5-yl)piperidin-1-yl)-2-(3-hydroxypiperidin-1-yl)ethan-1-one]	8.77	7.95	6.24					
Cc1nccc(-c2[nH]c3ccc(C4CCN(C5CCN(C(C)C)CC5)CC4)cc3c2C)c1C [Example 812, 2-(2,3-dimethylpyridin-4-yl)-5-(1′-isopropyl-[1,4′-bipiperidin]-4-yl)-3-methyl-1H-indole]						6.39	7.35	7.46
Cc1cc(-c2[nH]c3ccc(C4CCN(C(=O)CNCC5CC5)CC4)cc3c2C(C)C)cc(C)n1 [Example 339, 2-((cyclopropylmethyl)amino)-1-(4-(2-(2,6-dimethylpyridin-4-yl)-3-isopropyl-1H-indol-5-yl)piperidin-1-yl)ethan-1-one]	8.55	7.88	6.06					
Cc1nccc(-c2[nH]c3ccc(C4CCNCC4)cc3c2C(C)C)c1C [Example 30, 2-(2,3-dimethylpyridin-4-yl)-3-isopropyl-5-(piperidin-4-yl)-1H-indole]	7.55	7.65	6.15					
Cc1cc(-c2[nH]c3ccc(C4CCN(C(=O)C5CC(=O)N(C)C5)CC4)cc3c2C(C)C)ccn1 (stereo not drawn) [Example 566, 4-(4-(3-isopropyl-2-(2-methylpyridin-4-yl)-1H-indol-5-yl)piperidine-1-carbonyl)-1-methylpyrrolidin-2-one]	7.10	6.93	< 4.30					
Cc1cc(-c2[nH]c3ccc(C4CCN(C5CCN(C(C)C)CC5)CC4)cc3c2C)ccn1 [Example 811, 5-(1′-isopropyl-[1,4′-bipiperidin]-4-yl)-3-methyl-2-(2-methylpyridin-4-yl)-1H-indole]						6.93	7.33	7.64
